Results taken from patent publication US20090162351A1, “Transdiscal administration of inhibitors of p38 MAP kinase” (DePuy Spine, Inc., priority 2007, published 2009).
Entries after “also recorded” stand apart in the source; their conditions may differ.

Legend:
[1] = system: injured bovine articular cartilage explants in inflammatory medium; assay: Drop tower model: GAG degradation in injured cartilage explants; assay type: cell-based; set-up: inhibition of GAG release vs no treatment explant: dose or concentration left out as unconfirmed; details: for Inhibition of GAG degradation: at 0.1-1 μM; for Inhibition of GAG degradation (in words): Table 4, injured cartilage explants, inflammatory conditions; for efficacy in inhibiting GAG release (in words): drop tower model
Text: In order to assess cartilage breakdown by inflammatory mediators and the effect of antagonists on those mediators, a cartilage impact model (the “drop tower model”) was established using a drop tower device to apply a peak compressive stress to a cartilage sample of about 20-30 MPa over an area of about 11-15 mm^2. Advantages of this model included its clinical relevance due to its potential to mimic several key parameters of osteoarthritis such as inflammatory cell mediators (by co-culturing with inflammatory cells), and induction of trauma to create the cartilage damage.
In the “drop tower design model” cartilage explants were first injured and then cultured in inflammatory medium to mimic the progression of joint impact trauma linked to cartilage degeneration and osteoarthritis. The approach of the model is to artificially produce cellular damage without gross structural alterations, and to determine how the cells respond to such an insult over the ensuing days when treated with or without potential therapeutic agents.
The device comprises a vertical rail that guides a sliding weight from 0.1 kg to 3 kg directly onto a force transducer which is situated at the bottom of the device. A sphere-shaped 2 mm indenter resting on a specimen is located at the bottom of the vertical rail. The indenter is held by a stop screw. The specimen is rigidly attached to a tissue holder underneath the indenter, to avoid side movements, the specimen is rigidly attached to the tissue holder. In this manner, the force transducer transduces a force indirectly onto the specimen. Adjusting the weight of a mass and height from which the mass drops varies the magnitude of the intended impact. For example, a weight mass (e.g., […]) held by a weight holder can be released from a height of e.g., 36 cm and dropped onto the force transducer.
Samples for compound evaluation were tested using either of two different methods to induce inflammatory conditions. One method utilized media conditioned from peripheral blood mononuclear cells (PBMCs) stimulated with LPS (“+LPS”) or non-inflammatory media without LPS (“−LPS”). Another method utilized the absence or presence of a cocktail of cytokines.
In the first method, bovine or human PBMCs were freshly prepared using Ficoll gradient by Lampire Biological Laboratories, Inc. PBMCs in RPMI w/10% FCS at delivery were spun down at 1500 rpm for twenty minutes and the cell pellet was washed twice with 1×PBS to wash off the residual Ficoll. The cells were then resuspended at a density of 1×10^6/ml in RPMI supplemented with 10% FCS, 1× Antibiotics-Antimycotics. The suspension was divided into two aliquots. One aliquot was stimulated with 10 μg/ml of LPS and the other was not stimulated. Both aliquots were then incubated at 37° C., 5% CO2 for twenty-four to seventy-two hours. The conditioned media with or without LPS stimulation are collected, aliquoted, and stored in −80° C. for a maximum of three months. Each conditioned medium was assessed for levels of pro-inflammatory cytokines to ensure their secretion from PBMC. A representative cytokine, IL-6, was assayed by ELISA using a Human IL-6 Quantikine kit and it was shown that the LPS-stimulated medium had at least 10 ng/ml of IL-6, while IL-6 was undetectable in the unstimulated medium.
In the second method, the explants were cultured at 37° C., 5% CO2 either in stimulated or non-stimulated conditioned medium as described above or in defined medium containing DMEM supplemented with 1% FCS, 1× insulin-transferrin-sodium selenite media supplement and Antibiotics-Antimycotics in the presence or absence of a cocktail of cytokines containing 10 ng/ml of IL-1β, 100 ng/ml of TNFα and 5 ng/ml of IFN-γ. The compounds were solubilized in H2O, Ethanol or DMSO (10^−2 M) according to suppliers' instructions and further diluted with either conditioned medium stimulated with or without LPS to the required concentrations. DMSO concentrations in the culture media never exceeded 1%. […]

[2] = system: bovine chondrocyte pellets / ARC tissues stimulated with IL-1β; assay: Chondrocyte pellet / ARC culture model: GAG degradation assay; assay type: cell-based; details: for GAG Release, Pellet Assay (in words): Table 3B; for concentration as low as which proteoglycan degradation was inhibited: chondrocyte pellets, 10 ng/ml IL-1β, five days; for effect on IL-1β-stimulated GAG degradation/release (in words): chondrocyte pellet / ARC model
Text: A chondrocyte pellet culture model was developed for in vitro high throughput screening of therapeutic compounds for inhibition of IL-1β-stimulated matrix degradation. The chondrocyte pellet culture model can be used to detect various potential therapeutic compounds effective in blocking different processes caused by IL-1β stimulation. For example, IL-1β stimulation results in increased glycosaminoglycan (GAG) degradation, prostaglandin E2 (PGE2) synthesis and total nitrite/nitrate production. Compounds with different mechanisms of action may inhibit the increase of one or two or all three of these parameters. For this reason, screening by, for example, measuring only GAG release would be limited to detection of a specific class of inhibitors and may not detect compounds with diversified mechanisms of function which may be involved in inhibition of the IL-1 stimulated inflammatory process. The development of the chondrocyte pellet culture assay system in a 96-well plate made possible large-scale screening of potential therapeutic compounds with different mechanisms of action.
Calf articular cartilage was obtained from the knee joints of eight to twelve month old animals and was processed within twenty-four hours after sacrifice. After removal of muscle and ligament, the cartilage was kept moist using phosphate buffer solution (PBS) to prevent tissue dehydration, and was aseptically peeled off from subchondral bone with a scalpel, and the cartilage pieces were further minced into smaller pieces (˜0.3-0.5×˜0.2-0.5 cm cubes). […] Chondrocytes were then enzymatically isolated from the tissue by incubation for overnight at 37° C. with gentle agitation in 0.2% collagenase in Dulbecco's modified eagle media (DMEM). After removal of tissue debris by filtration through cell strainer and the residual collagenase by 3× wash in PBS, cells were finally resuspended at a density of 2.5×10^6 cells/ml in chondrocyte medium. A 1 ml aliquot of the cell suspension was dispensed into either a 15 ml Falcon centrifuge tube or a 96 deep-well plate and centrifuged at 2000×g for five minutes. The chondrocyte pellets were incubated at 37° C. in a humidified atmosphere of 5% CO2 for two to three weeks with a medium change every other day.
As an alternative to using calf articular cartilage, a commercial Aliginate Recovered Chondrocytes (ARC) system was also used (Articular Engineering, LLC (Northbrook, Ill.)). Use of the commercial system cut down on labor and time in producing chondrocyte pellet. This system produced cartilaginous tissue in vitro using bovine chondrocytes. The first step consisted of culturing chondrocytes in alginate under conditions optimal for the formation of a cell-associated matrix (CM). The second step allowed these cells with their CM, after recovery, to rapidly form and become integrated into a solid mass of cartilage on a porous insert within two weeks.
This tissue is rich in cells surrounded by a cell-associated matrix that is degraded rapidly when the cells are exposed to IL-1. ARC tissues in 3 mm punches at delivery were first dispensed into a 96 deep-well plate, one punch per well, for compound treatment. The subsequent procedures were the same as those used for the chondrocyte pellets.
Chondrocyte pellets were washed once with 1 ml of Chondrocyte Stimulation Medium and equilibrated in the same medium at room temperature for fifteen to thirty minutes. Compounds were dissolved in H2O, Ethanol or dimethyl sulfoxide (DMSO) (10^−2 M) according to suppliers' instructions and further diluted with Chondrocyte Stimulation Medium to the required concentrations. DMSO concentrations in the culture media should not exceed 1%; this concentration of DMSO has no effect on cartilage proteoglycan metabolism in response to cytokines.
The pellets were first treated with compounds at desired concentrations at 37° C. for one hour and then incubated for three to five days in the absence or presence of 10 ng/ml of IL-1β. […]

[3] = Bos taurus, injured cartilage explants
[4] = Bos taurus, Chondrocyte, read-out: GAG Release (inhibition), Pellet Assay

## CC(C(=O)O)c1ccc(C(=O)c2cccs2)cc1 (stereo not drawn) [Suprofen, reference compound]
[1]; injured cartilage explants
  Inhibition of GAG degradation: 100% inh at 0.1-1 μM
[2]
  GAG Release, Pellet Assay (in words): No effect

## COc1ccc(-n2nc(CCC(=O)N(C)O)cc2-c2ccc(Cl)cc2)cc1 [Tepoxalin, reference compound]
[1]; [3]
  inhibition at 10 µM: 100%
[2]; [4]
  inhibition at 10 µM: 15%

## CO[C@H]1C[C@@H]2CC[C@@H](C)[C@@](O)(O2)C(=O)C(=O)N2CCCC[C@H]2C(=O)O[C@H]([C@H](C)C[C@@H]2CC[C@@H](O)[C@H](OC)C2)CC(=O)[C@H](C)/C=C(\C)[C@@H](O)[C@@H](OC)C(=O)[C@H](C)C[C@H](C)/C=C/C=C/C=C/1C [Rapamycin, reference compound]
[1]; injured cartilage explants
  Inhibition of GAG degradation: 100% inh at 0.1-1 μM
[1]; five days
  inhibition of GAG release vs no treatment explant: ~84%
[2]; [4]
  inhibition at 10 µM: 50%

## O=C(O)c1cc(O)c2c(c1)C(=O)c1cccc(O)c1C2=O [Rhein, reference compound]
[1]; Bos taurus, at 35 μM, injured cartilage explants
  inhibition at 35 µM: 100%
[2]
  concentration as low as which proteoglycan degradation was inhibited: 0.035 µM

## CC(=O)Oc1cccc2c1C(=O)c1c(OC(C)=O)cc(C(=O)O)cc1C2=O [Diacerein, reference compound]
[1]; Bos taurus, at 54 μM, injured cartilage explants
  inhibition at 54 µM: 100%
[1]; at high dosage, LPS-stimulated PBMC conditioned medium, five days
  proteoglycan degradation in injured cartilage induced by inflammatory mediators (in words): completely inhibited
[2]
  concentration as low as which proteoglycan degradation was inhibited: 0.054 µM
[2]; diacerein at 5.4 μM, rhein at 3.5 μM
  inhibitory effect for GAG vs lower concentrations (in words): weaker inhibitory effect

## C[C@@H]1CN(Cc2ccc(F)cc2)[C@@H](C)CN1C(=O)c1cc2c(C(=O)C(=O)N(C)C)cn(C)c2cc1Cl [SCIO-469 (SD 469)]
[2]
  GAG Release, Pellet Assay (in words): No effect
  effect on IL-1β-stimulated GAG degradation/release (in words): no effect

## CC(=O)N1CCN(c2c(-c3ccncc3)c(-c3ccc(F)cc3)c(C#N)n2C)CC1 [JNJ 17089540 (RWJ 669307)]
[2]
  GAG Release, Pellet Assay (in words): No effect
  effect on IL-1β-stimulated GAG degradation/release (in words): little effect

## C[C@H](Nc1nccc(-c2c(-c3ccc(F)cc3)nc3nc(N)ccn23)n1)c1ccccc1 [JNJ 7583979 (RWJ 351958)]
[1]
  Inhibition of GAG degradation (in words): little
  efficacy in inhibiting GAG release (in words): little efficacy
[2]; Bos taurus, Chondrocyte, at 1 μM, read-out: GAG Release (inhibition), Pellet Assay
  inhibition at 1 µM: 10%
[2]; [4]
  inhibition at 10 µM: 64%
[2]
  effect on IL-1β-stimulated GAG degradation/release (in words): significantly inhibited; also recorded: significant effect

## OCCC#Cc1nc(-c2ccc(F)cc2)c(-c2ccncc2)n1CCCc1ccccc1 [JNJ 3026582 (RWJ 67657), 4-[4-(4-fluorophenyl)-1-(3-phenylpropyl)-5-(4-pyridinyl)-1H-imidazol-2-yl]-3-butyn-1-ol]
[1]
  Inhibition of GAG degradation (in words): little
  efficacy in inhibiting GAG release (in words): little efficacy
[2]; [4]
  inhibition at 10 µM: ~90%
[2]
  effect on IL-1β-stimulated GAG degradation/release (in words): significantly inhibited; also recorded: significant effect

## C[C@@H]1CN(Cc2ccc(F)cc2)[C@@H](C)CN1C(=O)c1cc2cc(C(=O)C(=O)N(C)C)[nH]c2cc1Cl [SCIO-282 (SD 282)]
[2]
  GAG Release, Pellet Assay (in words): No effect
  effect on IL-1β-stimulated GAG degradation/release (in words): little effect

## Cc1ccc(C(=O)c2ccc(CC(=O)O)n2C)cc1 [Tolmetin, reference compound]
[1]; [3]
  inhibition at 10 µM: 60%
[2]
  GAG Release, Pellet Assay (in words): No effect
